The text below walks through data of patent publication US20260199481A1, “PROTEIN DEGRADATION TARGETING CHIMERA COMPOUND, COMPOSITION THEREOF, AND USE THEREOF” (TSINGHUA UNIVERSITY, priority 2022, published 2026).

Read-outs that look alike come from different tables or passages of the source.

For one assay, the system named is MCF-7 cells. Briefly: In vitro anti-tumor effect, CellTiter 96 viability assay. The assay is classed as cell-based. The settings on record: Homo sapiens, MCF7, light or radiation study. On the procedure: Experimental Procedure: MCF-7 cells in the logarithmic growth phase were used for the experiment. The cells were seeded at 5000 cells per well in 96-well plates and incubated for 24 hours at 37° C. The cells were treated with Example compounds A1-D3 for 3 h. Subsequently, the irradiated group was irradiated with 10-30 Gy of X-rays, and the cells were continued to be incubated until 72 h after completion of irradiation. At the end of drug treatment, 20 μL of CellTiter 96° solution was added to each well. The well plates were incubated in an incubator for 2-4 hours, and then the absorbance was measured using a plate reader. Data were analyzed with GraphPad Prism software to obtain the IC50 values of each test compound.

A further assay concerns the target T1, BRD4 (Homo sapiens, UniProt O60885).
T1 construct: endogenous in cells; host or cells: MCF-7
Description: Protein degradation activity, Western blotting of BRD4 in MCF-7 cells. It is filed as cell-based. The settings on record: FIG. 3. On the procedure: Cell treatment: MCF-7 cells in the logarithmic growth phase were taken for the experiment. Cells were inoculated in six-well plates at a density of 5.0×10^5 cells/per well and incubated at 37° C. for 24 hours. […]
Whole cell protein extraction: After completion of drug treatment, the culture medium was discarded, and the cells were washed 3 times with pre-cooled PBS. Cells were scraped off using a cell scraper, and the resulting solution was carefully aspirated and centrifuged at 300 g for 5 min at 4° C. to obtain cells, which were washed with PBS, resuspended, and centrifuged under the same conditions.
Cell lysis: Cells were washed with pre-cooled PBS and lysed in pre-cooled lysis buffer (containing 1% protease and phosphatase inhibitor) for 30 min, and cells were vigorously vortexed several times during lysis. After lysis was completed, the cells were centrifuged at 11,000 g for 15 min at 4° C., and the supernatant was collected as whole cell protein.
Protein denaturation: protein concentration was measured by Bradford assay. Proteins were diluted using 4× Protein Sampling Buffer. Subsequently, the proteins were denatured by heating in a metal bath at 100° C. for 15 min.
Protein Immunoblotting Assay (Western Blotting, WB) was Performed to Quantify BRD4 Protein:
1) Protein electrophoresis: proteins were separated in 4-12% or 4-20% Bis-Tris SDS-PAGE gels. The appropriate volume of the above cell whole protein extract was added to the lanes of the above SDS-PAGE gel. Turn on the power and electrophoresis at 120 V for 15 minutes, then adjust the voltage to 180 V and continue electrophoresis until the loading buffer reaches the lowest end of the gel.
(2) Membrane transfer: After electrophoresis, remove the gel, cut a PVDF membrane […] of the appropriate size and activate the membrane with anhydrous methanol, and install the membrane transfer device in the following order from the negative pole to the positive pole: sponge cushion, gel, PVDF membrane, sponge cushion. After installing the membrane transfer device, place it in the corresponding membrane transfer tank, check the liquid level of the solution required for membrane transfer, turn on the power, and complete the membrane transfer after 3 transfer cycles.
3) Blocking: Place the membrane in QuickBlock™ Western Blocking Buffer and shake it for 20 minutes at room temperature.
4) Primary antibody incubation: After the blocking, discard the blocking solution, add the primary antibody diluted to the appropriate concentration, and gently shake the membrane overnight at 4° C. After completing the incubation, wash the membrane 4 times with 1×TBST for 5 min/time.
(5) Secondary antibody incubation: Add secondary antibody diluted to the appropriate concentration and gently shake the PVDF membrane for 1 hour at room temperature. After incubation, the membrane was washed 4 times with 1×TBST for 5 min/time.
6) Developing: Prepare the ECL developing solution before developing. Lay the PVDF membrane flat on a clean plastic wrap, add the developer solution to the membrane, and let it stand for 1 minute away from light. Subsequently, the PVDF membrane was imaged on a gel system.

For the next assay, the system named is MCF-7 cell line. Description: In vivo anti-tumor activity, MCF-7 tumor model. As to conditions: for tumor growth (tumor volume): 10 mg/kg subcutaneous injection. Further details: species or system BALB/c nude mice. On the procedure: To investigate the in vivo activation and antitumor activity of the PROTAC compound AS2 and X-ray-responsive PROTAC compound A1, we performed in vivo antitumor activity studies. The MCF-7 cell line was selected, and experiments were performed in BALB/c nude mice. Experimental animals: BALB/c nude mice (female; 6-8 weeks old) were all purchased from Beijing Vital River Laboratory Animal Technology Co., Ltd and housed in pathogen-free conditions with standard temperature and humidity at the Laboratory Animal Resources Center of Tsinghua University. All animal experiments were approved by the Animal Ethics Committee of Tsinghua University. Tumor model establishment: MCF-7 cells in logarithmic growth phase were taken, and 0.25% trypsin was added to digest the cells after washing the cells for 3 times with pre-cooled PBS buffer. The digested cells were centrifuged at 1000 rpm/min for 5 min, the precipitate was discarded, and the cells were resuspended with pre-cooled PBS and carefully blown to make a single-cell solution. After the cells were counted by a counter, the cell density was adjusted to 1×10^7 cells/mL, and 10 mL was taken into a centrifuge tube and stored on ice. Before inoculation of cancer cells, nude mice were gently wiped under the skin of the right axilla with a paper towel sprayed with 75% alcohol. A 1 mL disposable syringe was used to aspirate 200 μL of cell suspension, and the air in the needle was removed, and a single subcutaneous injection was carried out by puncturing about 1 cm forward from the needle inlet site. The needle was withdrawn slowly to avoid fluid leakage. Observe the tumor growth status daily. Drug administration: When the tumor volume reached 120 mm^3, the tumor-bearing mice were randomly grouped. Six groups were set up, namely PBS, PROTAC drug AS2, PROTAC prodrug A1, PBS+X-ray irradiation, PROTAC drug AS2+X-ray irradiation, and PROTAC prodrug A1+X-ray irradiation. Each drug was dispersed in the following solution: 1.25% DMSO+20% PEG+5% Tween 80+73.75% dd H2O; administered dose: 10 mg/kg; subcutaneous injection. X-ray irradiation was performed 3 hours after drug injection. The irradiation dose was 5 Gy. Tumor size and body weight were monitored every other day. Tumor volume was calculated using the formula: tumor volume=length×width^2/2. After 16 days of monitoring, mice in each group were euthanized, and tumors and major organs were collected.

The mark [1] stands for this setting: compound 3 h, then X-rays 10 Gy or 30 Gy, 72 h after irradiation, read-out: Irradiation with 10 Gy or 30 Gy IC50.
Setting [2] is: no irradiation, 72 h incubation, read-out: Radiation-free IC50.

For orientation: IC50 means the concentration at which inhibition is half-maximal. As for `COc1cc(COC(=O)O[C@@H]2C[C@@H](C(=O)N[C@@H](C)c3ccc(-c4scnc4C)cc3)N(C(=O)[C@H](NC(=O)COCCOCCOCCNC(=O)C[C@@H]3N=C(c4ccc(Cl)cc4)c4c(sc(C)c4C)-n4c(C)nnc43)C(C)(C)C)C2)cc(OC)c1` [Compound A2], the concentration for half-maximal inhibition (IC50) with MCF-7 cells (setting [1]) turned out to be 103 nM; in the assay with MCF-7 cells (setting [2]) it was 1110 nM.
Usually DC50 stands for the concentration giving 50% degradation. The low end stands for degradation at low concentration, the high end for degradation only at high concentration. At BRD4 (WB), `Cc1ncsc1-c1ccc([C@H](C)NC(=O)[C@@H]2C[C@@H](O)CN2C(=O)[C@H](NC(=O)COCCOCCOCCNC(=O)C[C@@H]2N=C(c3ccc(Cl)cc3)c3c(sc(C)c3C)-n3c(C)nnc32)C(C)(C)C)cc1` [AS2] gave a DC50 of 31.2 nM. Also, the “degradation activity on BRD4” value on BRD4 (tested concentrations 0-300 nM) was “effectively degraded BRD4”. Also, the “tumor growth (tumor volume)” value in the assay on MCF-7 cell line (X-ray 5 Gy 3 hours after drug injection) is recorded as “tumor growth was significantly inhibited”; in the assay on MCF-7 cell line (no irradiation, compared with PBS group) it was “poor antitumor effect”. For the same compound, the “tumor weight at day 16” value in the assay on MCF-7 cell line (10 mg/kg subcutaneous, two administrations with radiation therapy, FIG. 9) was “essentially no tumor growth”.
For `Cc1sc2c(c1C)C(c1ccc(Cl)cc1)=N[C@@H](CC(=O)C(CCCCNc1cccc3c1C(=O)N(C1CCC(=O)NC1=O)C3=O)Cc1c(F)c(F)c(F)c(F)c1F)c1nnc(C)n1-2` (stereo partly drawn) [Compound A3], the IC50 with MCF-7 cells (setting [1]) was 273 nM; with MCF-7 cells (setting [2]), 2540 nM.
As for `COc1cc(COC(=O)O[C@@H]2C[C@@H](C(=O)N[C@@H](C)c3ccc(-c4scnc4C)cc3)N(C(=O)[C@H](NC(=O)CCOCc3cn(CCOCCNC(=O)C[C@@H]4N=C(c5ccc(Cl)cc5)c5c(sc(C)c5C)-n5c(C)nnc54)nn3)C(C)(C)C)C2)cc(OC)c1` [Compound D2], the figures for the IC50 in the assay on MCF-7 cells (setting [1]) and with MCF-7 cells (setting [2]) were 127 nM and 1010 nM, respectively.
For the compound `Cc1sc2c(c1C)C(c1ccc(Cl)cc1)=N[C@@H](CC(=O)NCCCCNc1cccc3c1C(=O)N(C1CCC(=O)N(C(=O)OCc4c(F)c(F)c(N)c(F)c4F)C1=O)C3=O)c1nnc(C)n1-2` (stereo partly drawn) [Compound C3], the IC50 with MCF-7 cells (setting [1]) came out at 970 nM; in the assay on MCF-7 cells (setting [2]) it was 1860 nM.
The corresponding values for `COc1cc(COC(=O)N2C(=O)CCC(N3C(=O)c4cccc(NCCCCNC(=O)C[C@@H]5N=C(c6ccc(Cl)cc6)c6c(sc(C)c6C)-n6c(C)nnc65)c4C3=O)C2=O)cc(OC)c1` (stereo partly drawn) [Compound D3] are 104 nM and 1960 nM.
Turning to `Cc1ncsc1-c1ccc([C@H](C)NC(=O)[C@@H]2C[C@@H](OC(=O)OCc3c(F)c(F)c(N=[N+]=[N-])c(F)c3F)CN2C(=O)[C@H](NC(=O)CCCCCCCCCCNC(=O)C[C@@H]2N=C(c3ccc(Cl)cc3)c3c(sc(C)c3C)-n3c(C)nnc32)C(C)(C)C)cc1` [Compound C1], the IC50 is 146 nM with MCF-7 cells (setting [1]) and 964 nM with MCF-7 cells (setting [2]).
As to `Cc1ncsc1-c1ccc([C@H](C)NC(=O)[C@@H]2C[C@@H](OC(=O)OCc3c(F)c(F)c(N=[N+]=[N-])c(F)c3F)CN2C(=O)[C@H](NC(=O)COCCCOCCNC(=O)C[C@@H]2N=C(c3ccc(Cl)cc3)c3c(sc(C)c3C)-n3c(C)nnc32)C(C)(C)C)cc1` [Compound B1], the results for the IC50 with MCF-7 cells (setting [1]) and in the assay on MCF-7 cells (setting [2]) were 119 nM and 1080 nM, respectively.
For `COc1cc(CC(CCCCNc2cccc3c2C(=O)N(C2CCC(=O)NC2=O)C3=O)C(=O)C[C@@H]2N=C(c3ccc(Cl)cc3)c3c(sc(C)c3C)-n3c(C)nnc32)cc(OC)c1` (stereo partly drawn) [Compound B3], in that order: 338 nM and 2760 nM.
Consider `Cc1ncsc1-c1ccc([C@H](C)NC(=O)[C@@H]2C[C@@H](OC(=O)OCc3c(F)c(F)c(N=[N+]=[N-])c(F)c3F)CN2C(=O)[C@H](NC(=O)CCOCc2cn(CCOCCNC(=O)C[C@@H]3N=C(c4ccc(Cl)cc4)c4c(sc(C)c4C)-n4c(C)nnc43)nn2)C(C)(C)C)cc1` [Compound D1], for which the IC50 in the assay on MCF-7 cells (setting [1]) worked out at 152 nM; with MCF-7 cells (setting [2]) it was 1220 nM.
The corresponding values for `COc1cc(COC(=O)O[C@@H]2C[C@@H](C(=O)N[C@@H](C)c3ccc(-c4scnc4C)cc3)N(C(=O)[C@H](NC(=O)CCCCCCCCCCNC(=O)C[C@@H]3N=C(c4ccc(Cl)cc4)c4c(sc(C)c4C)-n4c(C)nnc43)C(C)(C)C)C2)cc(OC)c1` [Compound C2] are 107 nM and 984 nM.
For `COc1cc(COC(=O)O[C@@H]2C[C@@H](C(=O)N[C@@H](C)c3ccc(-c4scnc4C)cc3)N(C(=O)[C@H](NC(=O)COCCCOCCNC(=O)C[C@@H]3N=C(c4ccc(Cl)cc4)c4c(sc(C)c4C)-n4c(C)nnc43)C(C)(C)C)C2)cc(OC)c1` [Compound B2], in that order: 119 nM and 1060 nM.
